Results from ChEMBL document CHEMBL4396888, “Design and Synthesis of Potent, Selective Inhibitors of Protein Arginine Methyltransferase 4 against Acute Myeloid Leukemia” (J Med Chem, 2019).

target: T1, Histone-arginine methyltransferase CARM1 (Homo sapiens, UniProt Q86X55); experiment: Inhibition of PRMT4 (unknown origin) using biotinylated […] (1 to 24 residues) as substrate in presence of [3H]SAM by scintillation proximity assay
T1 sequence (Q86X55 whole entry): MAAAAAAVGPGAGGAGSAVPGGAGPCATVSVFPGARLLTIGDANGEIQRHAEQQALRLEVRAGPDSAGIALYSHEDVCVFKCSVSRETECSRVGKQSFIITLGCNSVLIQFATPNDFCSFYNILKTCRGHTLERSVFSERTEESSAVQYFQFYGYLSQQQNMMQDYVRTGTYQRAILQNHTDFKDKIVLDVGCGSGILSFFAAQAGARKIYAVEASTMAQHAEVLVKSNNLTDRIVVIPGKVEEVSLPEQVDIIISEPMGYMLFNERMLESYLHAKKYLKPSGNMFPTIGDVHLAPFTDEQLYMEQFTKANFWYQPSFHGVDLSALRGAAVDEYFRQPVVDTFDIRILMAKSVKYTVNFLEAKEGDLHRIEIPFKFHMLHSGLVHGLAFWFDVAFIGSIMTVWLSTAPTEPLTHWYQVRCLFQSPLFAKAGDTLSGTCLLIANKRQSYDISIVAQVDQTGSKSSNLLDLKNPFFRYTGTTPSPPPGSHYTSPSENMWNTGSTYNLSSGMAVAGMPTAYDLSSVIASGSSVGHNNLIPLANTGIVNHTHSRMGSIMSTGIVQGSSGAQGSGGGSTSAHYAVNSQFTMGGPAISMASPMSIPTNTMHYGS

Row | SMILES | IC50 [nM]
1 | CC(C)Oc1ccc(-c2c[nH]cc2CN(C)CCN)cc1 | 4 to 119

target: Protein arginine N-methyltransferase 8 (Homo sapiens, UniProt Q9NR22); experiment: Inhibition of PRMT8 (unknown origin) using biotinylated histone H4 (1 to 24 residues) as substrate in presence of [3H]SAM by scintillation proximity assay
Sequence (Q9NR22 whole entry, the tested form may be a part): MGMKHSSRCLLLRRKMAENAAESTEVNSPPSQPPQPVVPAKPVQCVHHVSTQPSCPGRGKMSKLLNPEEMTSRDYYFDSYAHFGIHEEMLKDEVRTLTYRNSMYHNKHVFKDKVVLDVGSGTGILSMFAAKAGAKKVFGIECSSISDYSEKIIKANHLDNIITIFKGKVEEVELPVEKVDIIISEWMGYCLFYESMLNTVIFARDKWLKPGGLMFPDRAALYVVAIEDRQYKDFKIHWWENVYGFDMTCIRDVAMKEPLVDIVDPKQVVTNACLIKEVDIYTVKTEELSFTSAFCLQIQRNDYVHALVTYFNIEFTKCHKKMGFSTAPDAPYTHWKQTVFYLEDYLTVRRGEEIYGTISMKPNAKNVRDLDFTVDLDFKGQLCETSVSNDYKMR

Row | SMILES | IC50 [nM]
2 | CC(C)Oc1ccc(-c2c[nH]cc2CN(C)CCN)cc1 | 4 to 119

target: T1, Histone-arginine methyltransferase CARM1; experiment: Inhibition of PRMT4 (unknown origin) using histone H3 (21 to 44 residues) as substrate measured after 60 mins in presence of SAM by AlphaLisa assay

Row | SMILES | IC50 [nM]
3 | CNCC(O)CN1CCc2c(cccc2NC(=O)c2ccccc2)C1 (stereo unspecified) | 6120
4 | CNCC(O)CN1CCc2c(cccc2Oc2cccc(F)c2)C1 (stereo unspecified) | 2310
5 | CNCC(O)CN1CCc2c(cccc2NC(=O)Nc2ccccc2)C1 (stereo unspecified) | 3820
6 | CNCC(O)CN1CCc2c(cccc2Oc2cc(C)cc(C)c2)C1 (stereo unspecified) | 1990
7 | CNCC(O)CN1CCc2c(cccc2OCc2ccc(-c3nccs3)cc2)C1 (racemic) | 31
8 | CNCC(O)CN1CCOc2ccccc2C1 (stereo unspecified) | > 10000
9 | CNCC(O)CN1CCc2c(cccc2C(=O)NCc2ccccc2)C1 (stereo unspecified) | 2130
10 | CNCC(O)CN1CCc2c(cccc2Oc2ccc(F)c(Cl)c2)C1 (stereo unspecified) | 2050
11 | CNCC(O)CN1CCc2c(cccc2NS(=O)(=O)c2ccccc2)C1 (stereo unspecified) | 4260
12 | CNCC(O)CN1CCc2c(cccc2Oc2ccccc2F)C1 (stereo unspecified) | 2070
13 | CNCC(O)CN1CCc2c(cccc2OCc2ccc(C(C)(C)C)cc2)C1 (stereo unspecified) | 1950
14 | CNCC(O)CN1CCc2c(cccc2Oc2cccc(N)c2)C1 (stereo unspecified) | 3490
15 | CNCC(O)CN1CCc2c(cccc2Nc2ccccc2)C1 (stereo unspecified) | 2110
16 | CNCC(O)CN1CCc2c(cccc2C(=O)Nc2ccccc2)C1 (stereo unspecified) | 7980
17 | CNCC(O)CN1CCc2ccccc2C1 (stereo unspecified) | 5310
18 | CNC[C@H](O)CN1CCc2c(cccc2OCc2ccc(-c3nccs3)cc2)C1 | 101
19 | CNCC(O)CN1CCc2cc(Br)ccc2C1 (stereo unspecified) | 4480
20 | CNCC(O)CN1CCc2ccc(Br)cc2C1 (stereo unspecified) | 5220
21 | CNCC(O)CN1CCc2ccccc2CC1 (stereo unspecified) | 8340
22 | CNCC(O)CN1Cc2ccccc2C1 (stereo unspecified) | 2460
23 | CNCC(O)CN1CCc2c(cccc2Oc2ccc(C#N)cc2)C1 (stereo unspecified) | 2310
24 | CNCC(O)CN1CCc2c(cccc2Oc2ccc(F)cc2)C1 (stereo unspecified) | 2610
25 | CNCC(O)CN1CCCc2ccccc2C1 (stereo unspecified) | 3190

Second part, the compound after the results:

Row | IC50 [nM] | SMILES
26 | 279 | CNCC(O)CN1CCc2c(cccc2Oc2ccc(-c3nccs3)cc2)C1 (stereo unspecified)
27 | 305 | CNCC(O)CN1CCc2c(cccc2OCc2ccc(C#N)cc2)C1 (stereo unspecified)
28 | 530 | CNCC(O)CN1CCc2c(cccc2OCc2cccc(F)c2)C1 (stereo unspecified)
29 | 165 | CNCC(O)CN1CCc2c(cccc2OCc2ccccc2)C1 (stereo unspecified)
30 | 228 | CNCC(O)CN1CCc2c(cccc2OCc2ccc(F)cc2)C1 (stereo unspecified)
31 | 343 | CNCC(O)CN1CCc2c(cccc2NCc2ccccc2)C1 (stereo unspecified)
32 | 130 | CNCC(O)CN1CCc2c(Br)cccc2C1 (stereo unspecified)
33 | 120 | CNCC(O)CN1CCc2c(cccc2OCc2ccc(-c3ccccc3)cc2)C1 (stereo unspecified)
34 | 475 | CNCC(O)CN1CCc2cc(OCc3ccccc3)ccc2C1 (stereo unspecified)
35 | 1180 | CNCC(O)CN1CCc2c(cccc2Oc2ccc(Cl)cc2)C1 (stereo unspecified)
36 | 37 | CNCC(O)CN1CCc2c(cccc2OCc2ccc(Cl)cc2)C1 (stereo unspecified)
37 | 43 | CNCC(O)CN1CCc2c(cccc2OCc2cccc(-c3nccs3)c2)C1 (racemic)
38 | 658 | CNCC(O)CN1CCc2c(cccc2Oc2cccc(-c3nccs3)c2)C1 (stereo unspecified)
39 | 32 | CNCCN1CCC(OCc2ccccc2)CC1
40 | 900 | CNCC(O)CN1CCc2cc(Oc3ccccc3)ccc2C1 (stereo unspecified)
41 | 270 | CNCC(O)CN1CCc2c(cccc2Oc2ccccc2)C1 (stereo unspecified)
42 | 785 | CNCC(O)CN1CCCc2c(Br)cccc2C1 (stereo unspecified)
43 | 772 | CNCC(O)CN1CCc2cccc(Br)c2C1 (stereo unspecified)
44 | 465 | CNCC(O)CN1CCc2c(cccc2-c2ccccc2)C1 (stereo unspecified)
45 | 254 | CNCC(O)CN1CCc2c(cccc2OCc2ccccc2F)C1 (stereo unspecified)

target: Protein arginine N-methyltransferase 6 (Homo sapiens, UniProt Q96LA8); experiment: Inhibition of PRMT6 (unknown origin) preincubated for 15 mins followed by substrate addition and measured after 60 mins by AlphaLisa assay
Sequence (Q96LA8 whole entry): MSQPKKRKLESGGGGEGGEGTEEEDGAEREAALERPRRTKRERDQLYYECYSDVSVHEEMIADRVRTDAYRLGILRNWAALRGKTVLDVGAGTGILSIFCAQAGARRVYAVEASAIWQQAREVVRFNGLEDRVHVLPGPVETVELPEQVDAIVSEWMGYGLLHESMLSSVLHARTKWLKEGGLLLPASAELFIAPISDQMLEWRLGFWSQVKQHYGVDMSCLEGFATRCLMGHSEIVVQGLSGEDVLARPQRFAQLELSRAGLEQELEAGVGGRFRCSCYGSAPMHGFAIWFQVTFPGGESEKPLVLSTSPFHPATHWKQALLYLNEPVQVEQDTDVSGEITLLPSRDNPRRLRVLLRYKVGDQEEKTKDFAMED

Row | SMILES | IC50 [nM]
46 | CNCC(O)CN1CCc2c(Br)cccc2C1 (stereo unspecified) | 41200
